Consider 77 molecules from PubChem BioAssay AID1208 (EPA DSSTox, 2008).

This series deals with rat chronic carcinogenicity bioassay, TD50. Put plainly: DSSTox (CPDBAS) Carcinogenic Potency Database Summary Rat Bioassay Results. The note with it: for Potency: hits give low values. The gist of the method:
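The activity score maps log10(1/TD50_Rat_mmol) linearly onto 1–100; actives without a computed TD50, such as mixtures, receive 50. Source data are chronic rat carcinogenicity tests, using the most positive experiment for each sex.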

Setting [1] is: TD50_Rat_Note: TD50 is harmonic mean of more than one positive test, TargetSites_Rat_Female: adrenal gland.
Setting [2] is: TD50_Rat_Note: no positive results, TargetSites_Rat_Female: no positive results.
Where [3] appears, read: TD50_Rat_Note: no positive results.
Where [4] appears, read: TD50_Rat_Note: TD50 is harmonic mean of more than one positive test, TargetSites_Rat_Female: stomach.
[5] abbreviates: TD50_Rat_Note: TD50 is harmonic mean of more than one positive test, TargetSites_Rat_Female: liver.
The mark [6] stands for this setting: TargetSites_Rat_Female: no positive results.

The source made the active and inactive calls.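 Rule for the calls: active = at least one rat sex group has a carcinogenic potency value and tumor site recorded; inconclusive = only rat studies were judged inadequate by the national testing program; inactive = no potency or tumor site, with negative rat experiments.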

Take `CC1(C)C(=O)Nc2ccc(C3=NNC(=O)CC3)cc21`: under setting [1], the Potency was 2.01 mg/kg/day. As for `O=NN1CCOCC1`, the Potency (TD50_Rat_Note: TD50 is harmonic mean of more than one positive test, TargetSites_Rat_Female: liver, vascular system) was 0.109 mg/kg/day. For the molecule `Cc1cc(Cl)ccc1OCC(=O)O`, the outcome under setting [2] was “inactive; no positive results”. With `Cc1ncc([N+](=O)[O-])n1CCO`, for the setting “TD50_Rat_Note: TD50 is harmonic mean of more than one positive test, TargetSites_Rat_Female: liver, mammary gland”, the Potency was 542 mg/kg/day. Turning to `O=c1cc[nH]c(=O)[nH]1`, the Potency (TD50_Rat_Note: TD50 is harmonic mean of more than one positive test, greater than ten-fold variation among TD50 values for positive res, TargetSites_Rat_Female: urinary bladder) was 671 mg/kg/day.

In the case of `O=C(O)CC[N+](=O)[O-]`, the outcome under setting [2] is “inactive; no positive results”. Still for that read-out and setting: the same measure for `C=C/C=N/O`: “inactive; no positive results”. With `CCN(CC)c1ccc(N=Nc2cc[n+]([O-])cc2)cc1`, the Potency (TD50_Rat_Note: TD50 value is overestimated as upper 99% confidence limit from study with 100% tumor incidence but no lifetable, harmoni) is 1.63 mg/kg/day. Take `CCN(N=O)C(N)=O`: the Potency (TD50_Rat_Note: TD50 is harmonic mean of more than one positive test, TargetSites_Rat_Female: nervous system, small intestine) was 0.948 mg/kg/day. `COc1cc(S(C)=O)ccc1-c1nc2ccncc2[nH]1` (centres undefined): the Potency under setting [1] was 70.5 mg/kg/day. On to `C[N+](C)(C)CCCl`, for which the outcome under setting [2] was “inactive; no positive results”. For the molecule `CCSC[C@H](N)C(=O)O`, under setting [3], the outcome was “inactive; no positive results”. In the case of `[O]=[Cr][O][Cr]=[O]`, the outcome (TD50_Rat_Note: no positive results, TargetSites_Rat_BothSexes: no positive results) was inactive. With `C[C@@H]1O[C@@]2(CS1)CN1CCC2CC1`, under setting [2], the outcome was “inactive; no positive results”.

Consider `O=[N+]([O-])c1cccc2cccnc12`, for which the Potency under setting [4] was 9.82 mg/kg/day. As for `FC(Cl)C(F)(F)F` (centres undefined), the outcome under setting [2] was inactive. `O=S(=O)(O)c1ccc(N=Nc2cc(S(=O)(=O)O)c3ccccc3c2O)c2ccccc12`: the outcome under setting [2] was “inactive; no positive results”. In the case of `COc1ccc(C(=O)Nc2c(Cl)cncc2Cl)cc1OC1CCCC1`, the Potency (TD50_Rat_Note: TD50 is harmonic mean of more than one positive test, TargetSites_Rat_Female: nasal cavity) is 1.54 mg/kg/day. In the case of `CC(C)C(C(=O)OC(C#N)c1cccc(Oc2ccccc2)c1)c1ccc(Cl)cc1` (centres undefined), the outcome under setting [2] is “inactive; no positive results”. As for `CC(C)Cc1ccc(C(C)C(=O)O)cc1` (centres undefined), the outcome under setting [3] is “inactive; no positive results”. Regarding `Cc1csc(NNC=O)n1`, the Potency (TargetSites_Rat_Female: mammary gland) was 14.4 mg/kg/day. In the case of `Nc1cc(S(=O)(=O)O)cc2cc(S(=O)(=O)O)c(N=Nc3ccc(-c4ccc(N=Nc5c(S(=O)(=O)O)cc6cc(S(=O)(=O)O)cc(N)c6c5O)cc4)cc3)c(O)c12`, under setting [5], the Potency was 1.73 mg/kg/day. With `CCCN(N=O)C(N)=O`, the Potency (TD50_Rat_Note: TD50 is harmonic mean of more than one positive test, harmonic mean of TD50 includes a value for upper 99% confidence li, TargetSites_Rat_Female: hematopoietic system) is 3.77 mg/kg/day. For the molecule `CN1CCCC1=O`, the outcome under setting [2] is “inactive; no positive results”. In the case of `Nc1c(Br)cc(Br)c2c1C(=O)c1ccccc1C2=O`, the Potency (TD50_Rat_Note: TD50 is harmonic mean of more than one positive test, TargetSites_Rat_Female: kidney, large intestine, liver, urinary bladder) was 46 mg/kg/day.

Regarding `CNC(=S)NC`, the outcome under setting [3] was “inactive; no positive results”. With `O=NN1CCC(=O)NC1=O`, the Potency under setting [5] is 0.0983 mg/kg/day. `FC(F)(F)C(Cl)Cl`: the Potency (TD50_Rat_Note: TD50 is harmonic mean of more than one positive test, greater than ten-fold variation among TD50 values for positive res, TargetSites_Rat_Female: liver) was 2370 mg/kg/day.

In the case of `ClC#CCl`, the Potency (TD50_Rat_Note: TD50 is harmonic mean of more than one positive test, TargetSites_Rat_Female: hematopoietic system, kidney, liver) was 3.58 mg/kg/day. Turning to `COC(=O)C1=C(C)NC(C)=C(C(=O)OCC(C)(C)CN(C)Cc2ccccc2)C1c1cc([N+](=O)[O-])ccc1F` (centres undefined), the outcome under setting [2] was “inactive; no positive results”. The same measure, in the same setting: the same measure for `C#C[C@]1(OC(C)=O)CC[C@H]2[C@@H]3CCC4=C[C@@H](OC(C)=O)CC[C@@H]4[C@H]3CC[C@@]21C`: “inactive”; for `O=C1O[C@H]([C@H](O)CO)C(O)=C1O`: “inactive; no positive results”. On to `O=NN1CCSCC1`, for which the Potency (TD50_Rat_Note: TD50 is harmonic mean of more than one positive test, TargetSites_Rat_Female: esophagus, oral cavity) is 5.39 mg/kg/day. As to `O=Nc1ccc(NO)cc1`, the Potency (TargetSites_Rat_Female: urinary bladder) was 106 mg/kg/day. Take `CCCN(CCC)S(=O)(=O)c1ccc(C(=O)O)cc1`: the outcome under setting [2] is “inactive; no positive results”.

Consider `CN(N=O)C(=O)c1c(N(C)N=O)ncn1C`, for which the Potency (TargetSites_Rat_BothSexes: stomach) was 0.183 mg/kg/day. As for `O=C1OC(O)C(C(Cl)Cl)=C1Cl` (centres undefined), the Potency (TD50_Rat_Note: TD50 is harmonic mean of more than one positive test, TargetSites_Rat_Female: adrenal gland, hematopoietic system, liver, mammary gland, thyroid gland) was 0.583 mg/kg/day. On to `CN1[C@@H]2CC[C@H]1CC(OC(=O)C(CO)c1ccccc1)C2` (some centres undefined), for which, under setting [2], the outcome was “inactive; no positive results”. As to `Cl/C=C/CCl`, the Potency runs as follows: under setting [4], 94 mg/kg/day; under setting [2], 100 mg/kg/day. For the molecule `O=c1oc2c(O)c(O)cc3c(=O)oc4c(O)c(O)cc1c4c23`, the outcome under setting [2] was inactive. Turning to `CCCCCCCCCCCCCCCC(=O)OC/C=C(C)/C=C/C=C(C)/C=C/C1=C(C)CCCC1(C)C`, the outcome under setting [3] is “inactive; no positive results”.

Take `CC(N)Cc1ccccc1` (centres undefined): the outcome under setting [2] was “inactive; no positive results”. On to `O=c1[nH]nc(-c2ccc([N+](=O)[O-])o2)o1`, for which the Potency (TargetSites_Rat_Female: all tumor bearing animals) is 8.61 mg/kg/day. Take `FC(F)(Cl)C(F)(Cl)Cl`: the outcome under setting [2] was “inactive; no positive results”. Take `CN=C(N)N`: the outcome under setting [3] is “inactive; no positive results”.

Regarding `Cc1cccn2c1nc1ccc(N)nc12`, the Potency (TD50_Rat_Note: TD50 is harmonic mean of more than one positive test, TargetSites_Rat_Female: clitoral gland, ear Zymbals gland, large intestine, liver, nervous system, small intestine) was 4.69 mg/kg/day. Consider `CCCCC/C=C\C/C=C\CCCCCCCC(=O)OC`, for which the outcome under setting [3] was “inactive; no positive results”. As to `Cc1ccccc1`, the Potency (TD50_Rat_Note: TD50 is harmonic mean of more than one positive test, TargetSites_Rat_Female: Maltoni head cancers) was 3060 mg/kg/day. As to `CC(N)=S`, the Potency was 11.5 mg/kg/day.

On to `CC(=O)NCc1nc(-c2ccc([N+](=O)[O-])o2)no1`, for which the Potency (TD50_Rat_Note: no positive results are statistically significant, TargetSites_Rat_Female: kidney, lung) was 59.6 mg/kg/day. Take `CCCc1cc(=O)[nH]c(=S)[nH]1`: under “TD50_Rat_Note: TD50 is harmonic mean of more than one positive test, TargetSites_Rat_Female: thyroid gland”, the Potency was 13.7 mg/kg/day. For `O=C(O)[C@@H]1[C@H](C(=O)O)[C@@]2(Cl)C(Cl)=C(Cl)[C@]1(Cl)C2(Cl)Cl`, the Potency under setting [5] was 40.8 mg/kg/day.

With `C=CBr`, the Potency (TD50_Rat_Note: TD50 is harmonic mean of more than one positive test, TargetSites_Rat_Female: ear Zymbals gland, liver, vascular system) is 18.5 mg/kg/day. Take `NC(=O)OCC(COC(N)=O)c1ccccc1`: the Potency under setting [5] was 1090 mg/kg/day. Regarding `C/C=C1/C[C@@H](C)[C@](O)(CO)C(=O)OCC2=CCN3CC[C@@H](OC1=O)[C@@H]23`, the Potency was 0.862 mg/kg/day. With `CCN=[N+](C)[O-]`, the Potency is 11.5 mg/kg/day. As for `Clc1cccc(-c2cc(Cl)cc(Cl)c2)c1`, the Potency (TD50_Rat_Note: TD50_Rat_mmol was not calculated for this mixture, but Activiity Score is assigned value of 50 to indicate active, TargetSites_Rat_Female: liver) is 53.9 mg/kg/day.

Take `C[C@]12CC[C@H]3C(=CCc4cc(OS(=O)(=O)O)ccc43)[C@@H]1CCC2=O`: the outcome under setting [2] is “inactive; no positive results”. Regarding `CN1CCC[C@H]1c1cccnc1`, under setting [2], the outcome is “inactive; no positive results”. In the case of `CCO`, the Potency under setting [6] was 9110 mg/kg/day. As to `Nc1ccc(/C=C/c2ccc(N)cc2S(=O)(=O)O)c(S(=O)(=O)O)c1`, under setting [2], the outcome was “inactive; no positive results”. Regarding `C=Cc1cccc(C)c1`, the outcome under setting [2] is “inactive; no positive results”. As for `O=CNNc1nc(-c2ccc([N+](=O)[O-])o2)cs1`, for the setting “TD50_Rat_Note: TD50 is harmonic mean of more than one positive test, TargetSites_Rat_Female: ear Zymbals gland, hematopoietic system, kidney, large intestine, liver, mammary gland, small intestine”, the Potency was 5.06 mg/kg/day. `ClC=C(Cl)Cl`: the Potency (TD50_Rat_Note: TD50 is harmonic mean of more than one positive test, TargetSites_Rat_Female: no positive results) was 668 mg/kg/day. Under setting [2], the outcome was “inactive; no positive results”. As to `O=C(O)CN(CCN(CC(=O)O)CC(=O)O)CC(=O)O`, the outcome under setting [2] is “inactive; no positive results”. On the same count and under the same terms, the same measure for `CN1C(=O)CN=C(c2ccccc2)c2cc(Cl)ccc21`: “inactive; no positive results”. In the case of `N[C@@H](Cc1cnc[nH]1)C(=O)O`, the outcome under setting [2] is “inactive; no positive results”.

`ClC(Cl)=C(Cl)Cl`: under “TD50_Rat_Note: TD50 is harmonic mean of more than one positive test, TargetSites_Rat_Female: hematopoietic system”, the Potency is 145 mg/kg/day. As for `CCCCC(CC)COP(=O)(OCC(CC)CCCC)OCC(CC)CCCC` (centres undefined), the outcome under setting [2] is “inactive; no positive results”.

Regarding `NC(=O)N(CCF)N=O`, the Potency is 0.125 mg/kg/day.

Take `C=CCOC(=O)CC(C)C`: the Potency under setting [6] is 123 mg/kg/day. With `O=[N+]([O-])c1ccc2ncccc2c1`, the outcome under setting [2] was “inactive; no positive results”. As for `Brc1cc(Br)c2cccnc2c1`, under setting [2], the outcome is “inactive; no positive results”. With `S=C(SN1CCOCC1)N1CCOCC1`, where the note is “TD50_Rat_Note: TD50 is harmonic mean of more than one positive test, TargetSites_Rat_Female: kidney, urinary bladder”, the Potency is 90.8 mg/kg/day.

Regarding `CBr`, under setting [2], the outcome is “inactive; no positive results”. On the same count and under the same terms, the result for `O=[N+]([O-])c1cc([As](=O)(O)O)ccc1O` reads “inactive; no positive results”; that for `O=NN1C[C@H](O)C[C@H]1C(=O)O`, “inactive; no positive results”.
